# pIC50: −log10 of the molar value.
# Molecular target: PIK3CA (human) (UniProt P42336)
# Experiment: Assessment of PIK3CA Kinase Activity
# Sequence of PIK3CA (human) (P42336 whole entry, looked up): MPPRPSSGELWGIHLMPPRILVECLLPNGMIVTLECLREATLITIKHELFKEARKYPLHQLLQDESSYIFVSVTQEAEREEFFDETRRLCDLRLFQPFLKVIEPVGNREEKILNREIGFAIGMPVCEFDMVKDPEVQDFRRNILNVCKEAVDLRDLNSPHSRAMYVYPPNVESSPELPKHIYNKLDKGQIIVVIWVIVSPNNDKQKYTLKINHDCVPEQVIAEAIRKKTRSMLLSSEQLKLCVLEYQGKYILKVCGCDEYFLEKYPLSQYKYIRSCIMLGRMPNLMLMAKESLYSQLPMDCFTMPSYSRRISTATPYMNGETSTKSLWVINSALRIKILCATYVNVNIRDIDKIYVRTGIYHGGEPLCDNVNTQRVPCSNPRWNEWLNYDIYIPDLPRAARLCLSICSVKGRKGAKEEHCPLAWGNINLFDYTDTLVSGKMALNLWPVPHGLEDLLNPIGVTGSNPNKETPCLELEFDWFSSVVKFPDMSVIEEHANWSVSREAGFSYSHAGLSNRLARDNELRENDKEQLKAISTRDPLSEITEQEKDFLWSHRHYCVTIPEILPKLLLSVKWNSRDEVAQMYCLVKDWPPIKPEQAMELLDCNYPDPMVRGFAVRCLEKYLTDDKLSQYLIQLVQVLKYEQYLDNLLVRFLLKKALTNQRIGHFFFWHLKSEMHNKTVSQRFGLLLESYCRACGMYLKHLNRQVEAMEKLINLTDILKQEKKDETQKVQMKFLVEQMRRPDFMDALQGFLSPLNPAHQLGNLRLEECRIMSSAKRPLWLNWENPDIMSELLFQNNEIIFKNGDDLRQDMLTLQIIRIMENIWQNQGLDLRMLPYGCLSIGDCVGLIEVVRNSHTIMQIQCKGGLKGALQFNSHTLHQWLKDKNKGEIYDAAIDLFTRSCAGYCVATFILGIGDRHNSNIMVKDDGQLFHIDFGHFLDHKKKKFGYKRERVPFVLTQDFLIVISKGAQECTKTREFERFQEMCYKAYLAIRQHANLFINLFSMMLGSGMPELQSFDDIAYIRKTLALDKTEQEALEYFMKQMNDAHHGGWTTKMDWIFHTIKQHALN
row,SMILES,pIC50
1,Nc1nc2c(c(-c3ccccc3)n1)-c1cc(NS(=O)(=O)c3ccccc3)c(Cl)cc1CC2,7.89
2,CS(=O)(=O)c1cccc(-c2nc(N)nc3c2-c2cc(NS(=O)(=O)c4ccc(F)cc4F)c(Cl)cc2CC3)c1,8.89
3,Nc1nc2c(c(=O)[nH]1)-c1ccc(Cl)cc1CC2,5.30
4,CC(=O)Nc1cccc(-c2nc(N)nc3c2-c2cc(S(=O)(=O)N4CCOCC4)c(Cl)cc2CC3)c1,7.60
5,Nc1nc2c(c(-c3ccccc3)n1)-c1cc(NS(=O)(=O)c3ccc(F)cc3F)c(Cl)cc1CC2,8.40
6,Nc1nc2c(c(-c3ccncc3)n1)-c1cc(NS(=O)(=O)c3cccs3)c(Cl)cc1CC2,8.49
7,CNC(=O)c1ccc(-c2nc(N)nc3c2-c2cc(NS(=O)(=O)c4ccc(F)cc4F)c(Cl)cc2CC3)cc1,8.80
8,Cn1cc(-c2nc(N)nc3c2-c2cc(NS(=O)(=O)c4ccccc4)c(Cl)cc2CC3)cn1,8.30
9,Nc1nc2c(c(-c3ccccc3)n1)-c1cc(S(=O)(=O)N3CCOCC3)c(Cl)cc1CC2,8.49
10,CN(C)S(=O)(=O)c1ccc(-c2nc(N)nc3c2-c2cc(NS(=O)(=O)c4ccc(F)cc4F)c(Cl)cc2CC3)cc1,8.60
11,CC(=O)Nc1ccc(-c2nc(N)nc3c2-c2cc(NS(=O)(=O)c4ccc(F)cc4F)c(Cl)cc2CC3)cc1,8.60
12,Nc1nc2c(c(-c3ccccc3)n1)-c1cc(NC(=O)c3ccc(F)cc3F)c(Cl)cc1CC2,5.80
13,Nc1nc2c(c(-c3ccncc3)n1)-c1cc(NS(=O)(=O)c3ccccc3)c(Cl)cc1CC2,8.20
14,Nc1nc2c(c(-c3cccc(S(=O)(=O)N4CCOCC4)c3)n1)-c1cc(NS(=O)(=O)c3ccc(F)cc3F)c(Cl)cc1CC2,8.10
15,N#Cc1ccc(S(=O)(=O)Nc2cc3c(cc2Cl)CCc2nc(N)nc(-c4ccncc4)c2-3)cc1,8.80
16,Nc1nc2c(c(-c3ccncc3)n1)-c1cc(NS(=O)(=O)c3ccc(F)cc3F)c(Cl)cc1CC2,9.00

row,SMILES,pIC50
1,Nc1nc2c(c(-c3cccc(F)c3)n1)-c1cc(NS(=O)(=O)c3ccc(F)cc3F)c(Cl)cc1CC2,8.40
2,CC(C)S(=O)(=O)Nc1cc2c(cc1Cl)CCc1nc(N)nc(-c3ccccc3)c1-2,7.60
3,CC(C)S(=O)(=O)Nc1cc2c(cc1Cl)CCc1nc(N)nc(-c3ccc(F)cc3)c1-2,7.49
4,Nc1nc2c(c(-c3ccc(S(=O)(=O)N4CCOCC4)cc3)n1)-c1cc(NS(=O)(=O)c3ccc(F)cc3F)c(Cl)cc1CC2,8.60
5,N#Cc1cccc(S(=O)(=O)Nc2cc3c(cc2Cl)CCc2nc(N)nc(-c4ccncc4)c2-3)c1,6.50
6,Nc1nc2c(c(-c3ccc(F)cc3)n1)-c1cc(NS(=O)(=O)c3ccccc3)c(Cl)cc1CC2,7.89
7,CNC(=O)c1cccc(-c2nc(N)nc3c2-c2cc(NS(=O)(=O)c4ccc(F)cc4F)c(Cl)cc2CC3)c1,8.40
8,CC(=O)Nc1ccc(-c2nc(N)nc3c2-c2cc(S(=O)(=O)N4CCOCC4)c(Cl)cc2CC3)cc1,8.49
9,COc1ccc(-c2nc(N)nc3c2-c2cc(NS(=O)(=O)c4ccc(F)cc4F)c(Cl)cc2CC3)cc1,8.70
10,Cn1cc(-c2nc(N)nc3c2-c2cc(NS(=O)(=O)c4ccc(F)cc4F)c(Cl)cc2CC3)cn1,8.20
11,Nc1nc2c(c(-c3cccnc3)n1)-c1cc(S(=O)(=O)N3CCOCC3)c(Cl)cc1CC2,7.70
12,Nc1nc2c(c(-c3ccncc3)n1)-c1cc(NS(=O)(=O)c3ccc4ccccc4c3)c(Cl)cc1CC2,6.39
13,Nc1nc2c(c(-c3ccncc3)n1)-c1cc(NS(=O)(=O)c3cccc(Cl)c3)c(Cl)cc1CC2,8.60
14,CN(C)S(=O)(=O)c1cccc(-c2nc(N)nc3c2-c2cc(NS(=O)(=O)c4ccc(F)cc4F)c(Cl)cc2CC3)c1,8.49
15,Nc1nc2c(c(-c3ccncc3)n1)-c1cc(S(=O)(=O)N3CCOCC3)c(Cl)cc1CC2,8.00

# Further compounds by rising pIC50, results first:
row,pIC50,SMILES
1,6.69,Cc1ccc([N+](=O)[O-])cc1S(=O)(=O)Nc1cc2c(cc1Cl)CCc1nc(N)nc(-c3ccncc3)c1-2
2,7.70,Nc1nc2c(c(-c3cccnc3)n1)-c1cc(NS(=O)(=O)c3ccc(F)cc3F)c(Cl)cc1CC2
3,7.80,Nc1nc2c(c(-c3ccccc3)n1)-c1cc(NS(=O)(=O)c3ccoc3)c(Cl)cc1CC2
4,7.80,CC(=O)Nc1cccc(-c2nc(N)nc3c2-c2cc(NS(=O)(=O)c4ccc(F)cc4F)c(Cl)cc2CC3)c1
5,7.89,Nc1nc2c(c(-c3ccccc3F)n1)-c1cc(S(=O)(=O)N3CCOCC3)c(Cl)cc1CC2
6,8.10,CNC(=O)c1ccc(-c2nc(N)nc3c2-c2cc(S(=O)(=O)N4CCOCC4)c(Cl)cc2CC3)cc1
7,8.20,Nc1cccc(-c2nc(N)nc3c2-c2cc(S(=O)(=O)N4CCOCC4)c(Cl)cc2CC3)c1
8,8.20,Nc1nc2c(c(-c3ccc(F)cc3)n1)-c1cc(S(=O)(=O)N3CCOCC3)c(Cl)cc1CC2
9,8.30,COc1cccc(-c2nc(N)nc3c2-c2cc(NS(=O)(=O)c4ccc(F)cc4F)c(Cl)cc2CC3)c1
10,8.40,Cc1ccc(-c2nc(N)nc3c2-c2cc(S(=O)(=O)N4CCOCC4)c(Cl)cc2CC3)cc1
11,8.40,NC(=O)c1ccc(-c2nc(N)nc3c2-c2cc(NS(=O)(=O)c4ccc(F)cc4F)c(Cl)cc2CC3)cc1
12,8.60,CS(=O)(=O)c1ccc(-c2nc(N)nc3c2-c2cc(NS(=O)(=O)c4ccc(F)cc4F)c(Cl)cc2CC3)cc1
13,8.60,Nc1nc2c(c(-c3ccc(F)cc3)n1)-c1cc(NS(=O)(=O)c3ccc(F)cc3F)c(Cl)cc1CC2
14,8.70,NC(=O)c1cccc(-c2nc(N)nc3c2-c2cc(NS(=O)(=O)c4ccc(F)cc4F)c(Cl)cc2CC3)c1
15,8.80,Nc1nc2c(c(-c3ccc(F)cc3)n1)-c1cc(S(N)(=O)=O)c(Cl)cc1CC2

# From the Kinase Knowledgebase extract (Sharma et al. 2016)
